According to US20040166137A1, “Hetero-substituted benzimidazole compounds and antiviral uses thereof” (priority 2002, published 2004):
Read-outs that look alike come from different tables or passages of the source.

Tests used:
RSV = assay: Antiviral assay (PRA): inhibition of RSV syncytial plaque formation on Hep2 cell monolayers; format: cell-based; settings: human respiratory syncytial virus, read-out: PRA (IC50)
Procedure: The lower the observed level of fusion, the greater the antiviral activity of the compound was determined to be. Uninfected confluent monolayers (seeded at 2.2×10^4 cells/well) of Hep2 cells were grown in microtiter wells (96-well plates) in EMEM (Eagle Minimum Essential Medium w/o L-glutamine [Bio Whittaker Cat. […] Bio Whittaker Cat. No. 14-[…]), antibiotics (penicillin/streptomycin; Bio Whittaker Cat. […] The plates were incubated for 24 hours and used for antiviral assays and cytotoxicity assays. To prepare Hep2 cells for addition to uninfected cells, cultures of […] infected Hep2 cells were washed with DPBS (Dulbecco's Phosphate Buffered Saline w/o calcium or magnesium; Bio Whittaker Cat. […] Gibco Life Technologies Cat. No. 15040-017). The cells were spun for 10 minutes and resuspended in 3% FBS. Cell counts were performed using a hemacytometer. Persistent cells were added to the uninfected Hep2 cells. The antiviral assay was conducted by first removing all medium from the wells containing uninfected Hep2 cells, adding 100 μl complete EMEM, then adding hetero-substituted benzimidazole compounds (eight 3-fold dilutions with 20 μM concentration as the highest final concentration) in 50 μl complete EMEM. Approximately 50 […] plaque forming units (PFU) of RSV in 50 μl was added per well and the plates were incubated in a CO2 incubator at 37° C. for 48 hours. Each plate contained uninfected control wells and infected untreated control wells for calculation of % inhibition (EC50) for each concentration. After incubation, cells in control wells were checked for fusion centers, medium was removed from the wells followed by addition to each well of either Crystal Violet stain or XTT. With respect to Crystal Violet, approximately 50μl 0.25% Crystal Violet stain in methanol was added to each well. The wells were rinsed immediately, to remove excess stain, and were allowed to dry. The number of syncytia per well were then counted, using a dissecting microscope. For antiviral assays at 48 hours post infection, cells in control wells were checked for syncytial plaques. Medium was removed from the wells followed by addition of approximately 50 Al Crystal Violet stain (0.25% Crystal Violet, 0.25% Giemsa dissolved in 10% formaldehyde, 70% methanol, and 20% H2O). The wells were incubated at room temperature for 5 minutes, rinsed with H2O to remove excess stain, and allowed to dry. The number of syncytia per well were counted using a dissecting microscope. The 50% inhibitory concentration (EC50) for each compound was calculated from the dose response curve. The compounds listed in Tables 1-2 have been screened for inhibitory activity against RSV.

[1] = XTT cytotoxicity assay on uninfected Hep2 cells; format: cell-based; settings: human
Procedure: Uninfected confluent monolayers (seeded at 2.2×10^4 cells/well) of Hep2 cells were grown in microtiter wells (96-well plates) in EMEM (Eagle Minimum Essential Medium w/o L-glutamine [Bio Whittaker Cat. No. 12-125F] with 3% fetal bovine serum (FBS; which had been heat inactivated for 30 minutes at 56° C.; Bio Whittaker Cat. No. 14-501F), antibiotics (penicillin/streptomycin; Bio Whittaker Cat. No. 17-602E) added at 1%, and glutamine added at 1% (complete EMEM). The plates were incubated for 24 hours and used for antiviral assays and cytotoxicity assays.
Cytotoxicity assays were conducted by first removing all medium from the well containing uninfected Hep2 cells, adding 100 μl complete EMEM, and then adding hetero-substituted benzimidazole compounds (eight 3-fold dilutions with 100 μM concentration as the highest final concentration). Complete EMEM (50 μl) was added to each well instead of virus and the plates were incubated in a CO2 incubator at 37° C. for 48 hours.
At 48 hours, the cytotoxicity assays were developed by adding to each well 50 μl of XTT (1 mg/ml in PBS) containing 0.01-0.02 mM of the electron coupling agent phenazine methosulfate (PMS). The plates were incubated for 2-4 hours at 37° C. and then read in a 96-well plate reader at 450 nm. Plotting the % average OD of treated wells compared to the cell control vs. compound concentration generated dose response curves. CC50 (50% inhibitory cytotoxic concentration) values for each compound were then calculated from these curves. […]

[2] = HEp-2, Table 1, RSV-infected Hep2 cells, 48 hours, syncytia counted
[3] = HEp-2, Table 2, RSV-infected Hep2 cells, 48 hours, syncytia counted

Compound	IC50 (RSV; [2])	IC50 (RSV; [3])	CC50 at 48 h [1]	IC50 (RSV; HEp-2, 48 h)	CC50 at 48 h ([1]; Table 1, uninfected Hep2 cells, 48 hours, read-out: XTT (CC50))
Cc1nn(C)c(Cl)c1S(=O)(=O)N1CCN(Cc2nc3cccnc3n2Cc2nc3ccccc3[nH]2)CC1 [compound 29, 3-(1H-Benzoimidazol-2-ylmethyl)-2-[4-(5-chloro-1,3-dimethyl-1H-pyrazole-4-sulfonyl)-piperazin-1-ylmethyl]-3H-imidazo[4,5-b]pyridine]		200 nM	≥ 100000 nM		
OCCN(CCO)CCNCc1nc2cccnc2n1Cc1nc2ccccc2[nH]1 [compound 1, 2-[(2-{[3-(1H-Benzoimidazol-2-ylmethyl)-3H-imidazo[4,5-b]pyridin-2-ylmethyl]-amino}-ethyl)-(2-hydroxy-ethyl)-amino]-ethanol]				160 nM	≥ 100000 nM
OCCN(CCO)CCCNCc1nc2cccnc2n1Cc1nc2ccccc2[nH]1 [compound 6, 2-[(3-{[3-(1H-Benzoimidazol-2-ylmethyl)-3H-imidazo[4,5-b]pyridin-2-ylmethyl]-amino}-propyl)-(2-hydroxy-ethyl)-amino]-ethanol]	190 nM		≥ 100000 nM		
Cn1cnc(S(=O)(=O)N2CCN(Cc3nc4cccnc4n3Cc3nc4ccccc4[nH]3)CC2)c1 [compound 19, 3-(1H-Benzoimidazol-2-ylmethyl)-2-[4-(1-methyl-1H-imidazole-4-sulfonyl)-piperazin-1-ylmethyl]-3H-imidazo[4,5-b]pyridine]			≥ 100000 nM		
O=S(=O)(c1ccsc1)N1CCN(Cc2nc3cccnc3n2Cc2nc3ccccc3[nH]2)CC1 [compound 31, 3-(1H-Benzoimidazol-2-ylmethyl)-2-[4-(thiophene-3-sulfonyl)-piperazin-1-ylmethyl]-3H-imidazo[4,5-b]pyridine]		10 nM	≥ 100000 nM		
FC(F)(F)c1ccc(N2CCN(Cc3nc4cccnc4n3Cc3nc4ccccc4[nH]3)CC2)cc1 [compound 14, 3-(1H-Benzoimidazol-2-ylmethyl)-2-[4-(4-trifluoromethyl-phenyl)-piperazin-1-ylmethyl]-3H-imidazo[4,5-b]pyridine]		5 nM	≥ 100000 nM		
O=C(Nc1ccc2c(c1)OCCCO2)N1CCN(Cc2nc3cccnc3n2Cc2nc3ccccc3[nH]2)CC1 [compound 20, 4-[3-(1H-Benzoimidazol-2-ylmethyl)-3H-imidazo[4,5-b]pyridin-2-ylmethyl]-piperazine-1-carboxylic acid (3,4-dihydro-2H-benzo[b][1,4]dioxepin-7-yl)-amide]		5 nM	≥ 100000 nM		
CC(C)N(Cc1ccccc1)Cc1nc2cccnc2n1Cc1nc2ccccc2[nH]1 [compound 8, [3-(1H-Benzoimidazol-2-ylmethyl)-3H-imidazo[4,5-b]pyridin-2-ylmethyl]-benzyl-isopropyl-amine]	5 nM		≥ 100000 nM		
Oc1cc2c(cc1O)CN(Cc1nc3cccnc3n1Cc1nc3ccccc3[nH]1)CC2 [compound 15, 2-[3-(1H-Benzoimidazol-2-ylmethyl)-3H-imidazo[4,5-b]pyridin-2-ylmethyl]-1,2,3,4-tetrahydro-isoquinoline-6,7-diol]		13 nM	≥ 100000 nM		
O=C(c1ccco1)N1CCN(Cc2nc3cccnc3n2Cc2nc3ccccc3[nH]2)CC1 [compound 21, {4-[3-(1H-Benzoimidazol-2-ylmethyl)-3H-imidazo[4,5-b]pyridin-2-ylmethyl]-piperazin-1-yl}-furan-2-yl-methanone]		13 nM	≥ 100000 nM		
Cc1cc(S(=O)(=O)N2CCN(Cc3nc4cccnc4n3Cc3nc4ccccc4[nH]3)CC2)c(C)s1 [compound 28, 3-(1H-Benzoimidazol-2-ylmethyl)-2-[4-(2,5-dimethyl-thiophene-3-sulfonyl)-piperazin-1-ylmethyl]-3H-imidazo[4,5-b]pyridine]		16 nM	≥ 100000 nM		

The next lines start with results.

IC50 (RSV; [2])	IC50 (RSV; [3])	Compound	CC50 at 48 h [1]	IC50 (RSV; HEp-2, 48 h)	CC50 at 48 h ([1]; Table 1, uninfected Hep2 cells, 48 hours, read-out: XTT (CC50))
9 nM		CN1CCN(CCCNCc2nc3cccnc3n2Cc2nc3ccccc3[nH]2)CC1 [compound 5, [3-(1H-Benzoimidazol-2-ylmethyl)-3H-imidazo[4,5-b]pyridin-2-ylmethyl]-[3-(4-methyl-piperazin-1-yl)-propyl]-amine]	≥ 100000 nM		
190 nM		c1ccc2[nH]c(Cn3c(CNCCCN4CCOCC4)nc4cccnc43)nc2c1 [compound 4, [3-(1H-Benzoimidazol-2-ylmethyl)-3H-imidazo[4,5-b]pyridin-2-ylmethyl]-(3-morpholin-4-yl-propyl)-amine]	≥ 100000 nM		
	2 nM	OCC1CCCN1Cc1nc2cccnc2n1Cc1nc2ccccc2[nH]1 (stereo not drawn) [compound 22, {1-[3-(1H-Benzoimidazol-2-ylmethyl)-3H-imidazo[4,5-b]pyridin-2-ylmethyl]-pyrrolidin-2-yl}-methanol]	≥ 100000 nM		
	20 nM	c1ccc2c(c1)CN(Cc1nc3cccnc3n1Cc1nc3ccccc3[nH]1)C2 [compound 27, 3-(1H-Benzoimidazol-2-ylmethyl)-2-(1,3-dihydro-isoindol-2-ylmethyl)-3H-imidazo[4,5-b]pyridine]	≥ 100000 nM		
4 nM		c1ccc2[nH]c(Cn3c(CNC4CCCC4)nc4cccnc43)nc2c1 [compound 7, [3-(1H-Benzoimidazol-2-ylmethyl)-3H-imidazo[4,5-b]pyridin-2-ylmethyl]-cyclopentyl-amine]	≥ 100000 nM		
	10 nM	OCCC1CCCCN1Cc1nc2cccnc2n1Cc1nc2ccccc2[nH]1 (stereo not drawn) [compound 23, 2-{1-[3-(1H-Benzoimidazol-2-ylmethyl)-3H-imidazo[4,5-b]pyridin-2-ylmethyl]-piperidin-2-yl}-ethanol]	≥ 100000 nM		
150 nM		COCCN(C)Cc1nc2cccnc2n1Cc1nc2ccccc2[nH]1 [compound 3, [3-(1H-Benzoimidazol-2-ylmethyl)-3H-imidazo[4,5-b]pyridin-2-ylmethyl]-(2-methoxy-ethyl)-methyl-amine]	≥ 100000 nM		
	4 nM	CC(=O)N1CCN(Cc2nc3cccnc3n2Cc2nc3ccccc3[nH]2)CC1 [compound 18, 1-{4-[3-(1H-Benzoimidazol-2-ylmethyl)-3H-imidazo[4,5-b]pyridin-2-ylmethyl]-piperazin-1-yl}-ethanone]	≥ 100000 nM		
240 nM		c1ccc2[nH]c(Cn3c(CNCCN4CCOCC4)nc4cccnc43)nc2c1 [compound 2, [3-(1H-Benzoimidazol-2-ylmethyl)-3H-imidazo[4,5-b]pyridin-2-ylmethyl]-(2-morpholin-4-yl-ethyl)-amine]	≥ 100000 nM		
3 nM		CC(C)N(C)Cc1nc2cccnc2n1Cc1nc2ccccc2[nH]1 [compound 9, [3-(1H-Benzoimidazol-2-ylmethyl)-3H-imidazo[4,5-b]pyridin-2-ylmethyl]-isopropyl-methyl-amine]	≥ 100000 nM		
5 nM		CC(C)N(Cc1nc2cccnc2n1Cc1nc2ccccc2[nH]1)C(C)C [compound 12, [3-(1H-Benzoimidazol-2-ylmethyl)-3H-imidazo[4,5-b]pyridin-2-ylmethyl]-diisopropyl-amine]	≥ 100000 nM		
	1 nM	c1ccc2[nH]c(Cn3c(CN4CCOCC4)nc4cccnc43)nc2c1 [compound 13, 3-(1H-Benzoimidazol-2-ylmethyl)-2-morpholin-4-ylmethyl-3H-imidazo[4,5-b]pyridine]	≥ 100000 nM		
